Assay results taken from patent US20240115557A1, “INHIBITORS OF RNA-GUIDED NUCLEASES AND USES THEREOF” (The Brigham and Women's Hospital, Inc., priority 2022, published 2024).

Molecular target: T1, SaCas9 (Staphylococcus aureus, UniProt J7RUA5)
T1 sequence (J7RUA5 1-1053): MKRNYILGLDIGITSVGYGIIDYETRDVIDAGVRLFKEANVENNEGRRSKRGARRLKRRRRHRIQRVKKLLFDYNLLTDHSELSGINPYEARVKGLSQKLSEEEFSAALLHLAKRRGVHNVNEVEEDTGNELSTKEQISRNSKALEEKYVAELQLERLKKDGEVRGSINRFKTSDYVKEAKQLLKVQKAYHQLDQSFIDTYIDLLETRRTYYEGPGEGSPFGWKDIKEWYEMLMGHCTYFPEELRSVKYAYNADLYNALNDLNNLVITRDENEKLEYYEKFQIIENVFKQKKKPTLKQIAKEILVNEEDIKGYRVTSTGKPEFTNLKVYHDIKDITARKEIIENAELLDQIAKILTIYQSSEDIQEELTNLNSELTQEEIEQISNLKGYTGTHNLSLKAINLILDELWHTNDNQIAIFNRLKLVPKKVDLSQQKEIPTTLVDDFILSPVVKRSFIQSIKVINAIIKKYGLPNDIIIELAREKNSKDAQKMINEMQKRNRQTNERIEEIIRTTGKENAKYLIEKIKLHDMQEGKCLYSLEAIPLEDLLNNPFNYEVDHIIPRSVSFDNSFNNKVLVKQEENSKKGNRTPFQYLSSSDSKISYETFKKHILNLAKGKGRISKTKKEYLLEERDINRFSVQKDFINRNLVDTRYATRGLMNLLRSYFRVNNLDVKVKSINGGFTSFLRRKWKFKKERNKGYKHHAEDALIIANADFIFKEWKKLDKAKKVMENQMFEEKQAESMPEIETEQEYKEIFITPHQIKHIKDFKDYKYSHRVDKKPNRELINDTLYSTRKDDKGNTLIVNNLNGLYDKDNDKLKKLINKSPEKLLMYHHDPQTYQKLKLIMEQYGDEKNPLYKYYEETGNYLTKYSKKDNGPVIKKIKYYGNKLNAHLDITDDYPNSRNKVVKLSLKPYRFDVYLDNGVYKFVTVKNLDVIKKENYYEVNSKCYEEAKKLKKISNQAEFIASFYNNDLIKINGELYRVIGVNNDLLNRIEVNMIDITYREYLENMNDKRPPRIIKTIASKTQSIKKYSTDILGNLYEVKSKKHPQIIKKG
Experiment: Strand displacement assay, SaCas9 primary screen
Format: biochemical
Conditions: for Auto Zscore Rep 1 / Auto Zscore Rep 2 / Normalized Zscore Rep 1 / Normalized Zscore Rep 2: SaCas9 primary screen; for Auto Zscore Rep 1 / Normalized Zscore Rep 1: replicate 1; for Auto Zscore Rep 2 / Normalized Zscore Rep 2: replicate 2; for Normalized Zscore Rep 1 / Normalized Zscore Rep 2: weaker potential hits; for 3 sigma Hit: flag 1 = hit at 3 sigma; for 5 sigma Hit: flag 1 = hit at 5 sigma
Protocol: An overview of the screening for SaCas9 inhibitors is depicted in FIG. 14. A total of 43,168 Compounds were screened from the ICCB Libraries. Libraries screened for the initial compounds include ChemDiv 7 (34,848 cpds), Enamine 1 (5,280 cpds), ChemDiv1 (1,760 cpds), NIH Clinical Collection (450 cpds), Biomol 4—FDA Approved Library (640 cpds). A hit is determined from the Zscore, with 3-5σ being a weak hit, >5σ being a strong hit. The results of the hits include 193 Weak Hits and 249 Strong Hits. The NIH Clinical Collection 1-2014 was screened for 450 of 450 compounds, with 7 hits—1.5%. The Biomol 4—FDA Approved Library was screened for 640 of 640 compounds, with 8 hits—1.2%. […] Enamine 1 was screened for 5,280 of 6,004 compounds, with 44 hits—0.83%. Libraries are commercially available, with reference numbers utilized for compounds identifying the compound structures used. […]
Generalization of CAA to other Cas nucleases. Applicants sought to generalize CAA to other CRISPR-associated nucleases, including from Staphylococcus aureus (SaCas9). Given the similarities between SaCas9 and SpCas9 modes of DNA-substrate binding and protein folding,^26, 27 Applicants hypothesized that SaCas9-induced strand displacement could be similarly measured. Indeed, fluorescence quenching correlated with substrate cleavage in the CAA assay with active SaCas9:gRNA and an ACGGGT PAM sequence, which was validated with gel electrophoresis (FIG. 62F,G and FIG. 69F).
First, Applicants optimized various components and conditions of the strand displacement assay for Cas enzyme activity and generality with different Cas such as SpCas9 (FIG. 62B) or SaCas9 (FIG. 69F) or FnCas12a (FIG. 70A,B). Typically, SpCas9: gRNA (1:1.2 ratio) RNP was pre-formed at 1 μM in Cas9 assay buffer (20 mM Tris-HCl, pH=7.5, 100 mM KCl, 5 mM MgCl2) for 5 min at 4° C. before diluting to 10 nM in Cas9 assay buffer (2× final concentration). 25 μL of the Cas9 2× stock was manually dispensed to a black 384-well plate (Corning 3575) using electronic pipette. Apo SpCas9 (without guide RNA) was used at the same concentration as a control for no activity (mock inhibition). Following this, pre-annealed Alexa-Fluor 647 labeled substrate and quencher were also diluted to 1 nM and 5 nM in Cas9 assay buffer, respectively (2× stock solution). Next, 25 μL of the substrate/quencher solution was added manually to each well of the Cas9-containing 384-well plates using an electronic pipette and was incubated at 37° C. for 2.5 h. Fluorescent signals were read with the microplate reader set to read Alexa-Fluor 647 fluorescence. Assay was performed similarly with SaCas9 and FnCas12a using the respective enzyme, gRNA, substrate, and quencher oligos. Applicants similarly divulged the effect of PAM sequences of dsDNA on its assay specificity using TGG, TGC, AAC PAM containing substrates for SpCas9 (FIG. 62C), and ACGGGT, ACGGTT, TGCCCA PAM substrate for SaCas9 (FIG. 62F) and TTTC, TTGC, AAAG PAM substrates for FnCpf1 (FIG. 63B-C). Applicants also optimized the effective concentration of DS-AF647 and SS-AF647 fluorophores (FIG. 64A), DS-substrate to SpCas9 RNP ratio (FIG. 64B) and substrate to quencher ratio (FIG. 64C) on assay performance. Similarly, Applicants performed a time course experiment to establish the time required for maximum completion of the reaction at various substrate to SpCas9 RNP ratios (FIG. 64D).

Row | Compound | Auto Zscore Rep 1 | Auto Zscore Rep 2 | Normalized Zscore Rep 1 | Normalized Zscore Rep 2 | 3 sigma Hit | 5 sigma Hit
1 | CCOC(=O)c1c(NC(=O)CSc2nnc3cc(C)c4cccc(OC)c4n23)sc(C)c1C [Cpd D278-0687] | 0.0101 | 0.4839 | 0.1526 | 0.1495 | 1 | 1
2 | Cn1c(=O)c2c(-c3ccccc3)n3c(c2n(C)c1=O)C(c1ccc(O)c(O)c1)Nc1ccccc1-3 (centres unmarked) [Cpd D359-0009] | −1.668 | −0.1926 | 0.1601 | 0.1044 | 1 | 1
3 | Cc1n[nH]c2c1C(c1ccc(O)c(O)c1)CC(=O)N2 (centres unmarked) [Cpd D361-0120] | −0.203 | −0.05734 | 0.3533 | 0.2821 | 1 | 1
4 | COc1ccc(C2CC(=O)C3=C(C2)Nc2onc(C)c2C3c2ccc(O)c(O)c2)cc1OC (centres unmarked) [Cpd D588-0034] | 0.4938 | −1.181 | 0.2106 | 0.2618 | 1 | 1
5 | Cc1noc2c1C(c1ccc(O)c(O)c1)C1=C(CC(c3ccccc3)CC1=O)N2 (centres unmarked) [Cpd D588-0186] | 0.2858 | −0.8337 | 0.2526 | 0.3021 | 1 | 1
6 | Cc1noc2c1C(c1ccc(O)c(O)c1)C1=C(CC(c3ccc(O)cc3)CC1=O)N2 (centres unmarked) [Cpd D588-0188] | 0.6685 | 0.2374 | 0.2133 | 0.2195 | 1 | 1
7 | CCOc1ccc(NC(=O)c2oc3cc(C)ccc3c2C)c2cccnc12 [Cpd D656-0040] | −0.413 | −1.287 | 0.4389 | 0.3581 | 1 | 1
8 | Cc1cccc(Nc2nc(C(N)=O)c(NC(=O)c3ccc(F)cc3)s2)c1C [Cpd D686-0236] | 2.51 | 1.919 | 0.2077 | 0.4936 | 1 | 
9 | O=c1oc2c(O)c(O)ccc2c2c1CCC2 [Cpd D715-0012] | −0.8066 | −0.8068 | 0.4402 | 0.5823 | 1 | 1
10 | O=c1ccc2ccc(OCc3nnn[nH]3)cc2o1 [Cpd D715-0997] | 1.322 | 0.6629 | 0.2335 | 0.4628 | 1 | 
11 | O=c1oc2cc(OCc3nnn[nH]3)c(Cl)cc2c2c1CCC2 [Cpd D715-1040] | 0.03234 | 2.456 | 0.2698 | 0.4064 | 1 | 1
12 | Cc1ccc(OCc2nn3c(-c4ccoc4C)nnc3s2)cc1 [Cpd D727-0112] | −0.1513 | −0.2297 | 0.2865 | 0.3127 | 1 | 1
13 | Cc1ccc(OCc2nn3c(-c4ccoc4C)nnc3s2)cc1C [Cpd D727-0113] | 1.744 | −0.999 | 0.1802 | 0.1627 | 1 | 
14 | Cc1occc1-c1nnc2sc(COc3ccc(Br)cc3)nn12 [Cpd D727-0114] | 1.154 | −0.6566 | 0.2766 | 0.2635 | 1 | 1
15 | Fc1ccc(-c2nn3c(CSc4ccccc4)nnc3s2)cc1 [Cpd D727-0190] | 0.8466 | −0.6764 | 0.2272 | 0.2685 | 1 | 1
16 | COCCc1nnc2n1N=C(c1ccc(Cl)cc1)CS2 [Cpd D727-0342] | −0.6224 | 1.036 | 0.1633 | 0.1771 | 1 | 
